Assay results reported in patent publication EP1370276B1, “INTERCELLULAR COMMUNICATION FACILITATING COMPOUNDS AND THEIR MEDICAL USE” (Zealand Pharma A/S, priority 2001, dated 2002).

Columns and labels:
[1] = test system: ventricular reentry arrhytmias; test: Ventricular reentry arrhythmias in dogs after coronary artery occlusion; type: in vivo; details: after the lowest i.v. dose (bolus: 0.1 µg/kg; infusion: 2 ng/kg/min), after CAO
Description: Three dogs were studied in the anesthetized, open chest state to facilitate electrode placement for mapping. α-chloralose was given as a bolus (200 mg/kg) and then a constant Infusion at 8 mg/kg/hr (dissolved in polyethylene glycol, MW=200). The femoral vein and artery was cannulated for administration of fluid and drugs and for measurement of ascending aortic pressure, respectively.
The sinus node was clamped and the atrial appendage was paced with a programmable stimulator with constant current outputs at two times diastolic threshold. Pacing rate was ≥200 b/min to control heart rates. […] Late ventricular diastolic threshold was measured during each intervention; the pacing current was four times threshold.
Test sites were chosen along the shaft of 16 pole needles (J. Kassell, Fayetteville, NC); each pole completely surrounds the needle shaft to prevent directionality of needle orientation from recording of adjacent Purkinje strands. Six bipolar electrograms (1 mm spacing) were recorded sequentially down the shaft of the needle by amplifying up to 1000 times, filtering from 3-1300 Hz and recording via oscilloscope during atrial pacing. Four intramural electrograms are recorded on each multipolar needle. […] Inter-needle distance measured on epicardium varies over 6-10 mm in dogs weighing 12-16 kg. […]

human osteoblast = test: Lucifer Yellow microinjection dye transfer, human osteoblasts; type: cell-based; details: 10 minutes, after 48 hours hypoxia 3-6% O2 (7 cells before)
Description: (§1) Human osteblast cells (hOB): Cells were isolated from human bone marrow obtained by puncture of the posterior iliac spine of healthy volunteers (aged 20-36): 10-15 ml marrow material was collected in 15 ml PBS+Ca,Mg (Life Technologies, Cat.No. 14040) with 100 U/ml Heparin (Sigma, Cat.No. H-3149). The mononuclear fraction of the marrow was isolated on a Lymphoprep gradient (Nycomed Pharma, Cat.No. 1001967), by centrifugation at 2200 rpm for 30 min. After harvesting, the mononuclear fraction was washed once with culture medium and centrifuged at 1800 rpm for 10 min. Subsequently cells were counted and plated in culture medium at 8x10^6 cells/100 mm dish. hOB medium (all reagents obtained from Life Technologies): MEM w/o Phenol Red w/ Glutamax (Cat.No. 041-93013) supplemented with 10% heat inactivated fetal calf serum (Cat.No. 10106) and 0.1% Penicillin/Streptomycin (Cat.No. 15140). Medium was changed the following day and the cells were cultured at 37°C in 5%CO2 with medium change every 7 days. After 3-4 weeks of culture the cells had reached 70% confluence. The medium was then supplemented with 100 nM Dexamethasone (Sigma, Cat.No. D-4902) for 7 days. Cells were then plated for video imaging experiments: a 25 mm #1 glass coverslip was
placed in a 35 mm dish (or each well of a 6-well multidish), cells were plated at 2.5×10^5 cells/coverslip and cultured for 2-3 days before use. […]

[2] = test system: cAMP formation in CHO cells; test: Inhibition of forskoline stimulated cAMP formation in CHO cells; type: cell-based; details: 10 µM forskoline, 20 min, cells pre-treated with glucose and oxygen deprivation
Description: CHO cells are seeded in 96-well microtiter plates in a density of 6,000 cells/cm^2 (∼ 2,000 cells/well) and grown for 4 days in vitro in 200 µl/well of growth media as described in the previous section.
On the day of analysis cells are removed from the incubator and washed twice with 200 µl pre-warmed (37°C) D-PBS (pH 7.2) to remove serum. Cells are incubated for 10 min in glucose free D-PBS and an N2-atmosphere as described in the previous section.
CHO cells are incubated at 37° C in D-PBS (pH 7.2) containing 6 mM glucose, 2.0 mM IBMX (phospodiesterase blocker), 10 µM forskoline (stimulates cAMP formation) and increasing concentrations of test peptide. The reaction is stopped after 20 min by addition of 20 µl 0.5 M HCl and left for at least 20 min at room temperature.
The content of cAMP is analysed by mixing 20 µl of the acid cell extract into FlashPlate™ wells (NEN assay kit SMP001) containing 180 µl [^12SI]cAMP tracer solution. FlashPlates™ are incubated overnight at 4° C and plate bound radioactivity counted in TopCount (Packard Instrument). Data are calculated as described in the previous section.

[3] = test system: alkaline phosphatase (ALP) activity of human osteoblasts; test: Alkaline phosphatase assay in human osteoblasts; type: cell-based
Description: as §1, with “The medium was then supplemented with 100 nM Dexamethasone (Sigma, Cat.No. D-4902) for 7 days. Cells were then plated for video imaging experiments: a 25 mm #1 glass coverslip was” left out
• Day 1: Cells were plated in 96-well plates at a conc. of 8000 cells/well (hOB) or 3000 cells/well (ROS) in 200 µl normal culture medium. • Day 2: Medium was changed on the cells. • Day 4: (Day 3 for ROS): Cells were washed with 200 µl MEM, 0.1% BSA (Sigma, Cat.No. A-9418). […] Absorbance was measured using a plate reader at 405 nm.

Ac-D-Tyr-D-Pro-D-4Hyp-Gly-D-Ala-Gly-NH2 [Compound 2]
inducibility of epicardial reentry VT [1]: VT was no longer inducible | dye transfer (number of cells containing Lucifer Yellow) (human osteoblast): 9 cells | EC50 [2]: 6.2 nM | ALP activity ([3]; 1 × 10^-13 to 1 × 10^-6, normal culture conditions, 4 days): increased ALP activity at most of the concentrations tested | stimulation of ALP activity during hypoxia compared with normoxia ([3]; 5% O2, four days, 10^-11 to 10^-8 mol/l): about 15%
